Measurements taken from patent USRE48097E1, “Cephem compounds, their production and use” (priority 2015, dated 2020).
Converted amounts (≈) assume the structure as drawn. Where two headings read alike, the source gives them in different places.

Experiments:
S. aureus3137 = assay: MIC against S. aureus3137; format: cell-based, S. aureus; settings: Table 2, S. aureus3137, MSSA
Source text: (§1) Without limitation, the present cephem compounds alone, or in combination with one or more β-lactamase inhibitors, may provide improved antibacterial efficacy, particularly in antibiotic-resistant bacterial strains. It is believed that the present compounds may be structurally different from known compounds and, as a result, may be more basic in nature. It is an advantage that the present compounds may extend the spectrum of effective bacterial compounds, particularly against previously-resistant bacteria (e.g. ESKAPE organisms), and/or gram negative bacteria, without significant side effects. In a preferred embodiment, the present cephem compound may comprise reference compound ceftazidime, which may be used alone, or in combination with one or more β-lactamase inhibitors, such as NXL-104. As shown, the foregoing composition was tested for minimum inhibitory concentration (MIC, μg/mL) against bacteria listed in Tables 2-3.

S. pneumoniae 2492 = assay: MIC against S. pneumoniae 2492; format: cell-based; settings: Table 2, S. pneumoniae 2492, Pen R
Source text: as §1

S. pneumoniae 2493 = assay: MIC against S. pneumoniae 2493; format: cell-based; settings: Table 2, S. pneumoniae 2493, Pen R
Source text: as §1

S. pneumoniae 2403 = assay: MIC against S. pneumoniae 2403; format: cell-based; settings: Table 2, S. pneumoniae 2403, Pen S
Source text: as §1

C. freundii 580 = assay: MIC against C. freundii 580; format: cell-based; settings: Table 2, C. freundii 580, Caz R, IMP S
Source text: as §1

C. freundii 2003 = assay: MIC against C. freundii 2003; format: cell-based; settings: Table 2, C. freundii 2003, Caz R, IMP S
Source text: as §1

C. freundii 2487 = assay: MIC against C. freundii 2487; format: cell-based; settings: Table 2, C. freundii 2487, Caz R, IMP S
Source text: as §1

K. pneumoniae 4106 = assay: MIC against K. pneumoniae 4106; format: cell-based; settings: K. pneumoniae 4106, KPC-3, TEM-1, SHV-12, SHV-141
Procedure: (§2) As shown, the foregoing composition was tested for minimum inhibitory concentration (MIC, μg/mL) against bacteria listed in Tables 2-3.

K. pneumoniae 4109 = assay: MIC against K. pneumoniae 4109; format: cell-based; settings: Table 2, K. pneumoniae 4109, SHV-1, SHV-12
Source text: as §1

K. baumanii 2579 = assay: MIC against K. baumanii 2579; format: cell-based; settings: Table 2, K. baumanii 2579, OXA-25
Source text: as §1

K. baumanii 4095 = assay: MIC against K. baumanii 4095; format: cell-based; settings: Table 2, K. baumanii 4095, OXA-48
Source text: as §1

E. coli 2668 = assay: MIC against E. coli 2668; format: cell-based; settings: Table 2, E. coli 2668, OXA-48
Source text: as §1

E. cloacae 2705 = assay: MIC against E. cloacae 2705; format: cell-based; settings: Table 3, E. cloacae 2705, VIM-1, KPC-3type
Procedure: as §2

K. pneumoniae 2690 = assay: MIC against K. pneumoniae 2690; format: cell-based; settings: Table 3, K. pneumoniae 2690, KPC-2
Procedure: as §2

K. pneumoniae 2711 = assay: MIC against K. pneumoniae 2711; format: cell-based; settings: Table 3, K. pneumoniae 2711, KPC-3, VIM-1
Procedure: as §2

[1] = Staphylococcus aureus, alone, read-out: MIC
[2] = Streptococcus pneumoniae, alone, read-out: MIC
[3] = Citrobacter freundii, alone, read-out: MIC
[4] = Klebsiella pneumoniae, 4106, Table 2, alone, read-out: MIC
[5] = Klebsiella pneumoniae, 4106, Table 3, alone, read-out: MIC
[6] = Table 2, in combination with NXL-104
[7] = Table 3, in combination with NXL-104
[8] = Klebsiella pneumoniae, alone, read-out: MIC
[9] = Escherichia coli, alone, read-out: MIC
[10] = Enterobacter cloacae, alone, read-out: MIC

Row | Compound | MIC (S. aureus3137; [1]) [µg/mL] | MIC (S. aureus3137; in combination with NXL-104) [µg/mL] | MIC (S. pneumoniae 2492; [2]) [µg/mL] | MIC (S. pneumoniae 2492; in combination with NXL-104) [µg/mL] | MIC (S. pneumoniae 2493; [2]) [µg/mL] | MIC (S. pneumoniae 2493; in combination with NXL-104) [µg/mL] | MIC (S. pneumoniae 2403; [2]) [µg/mL] | MIC (S. pneumoniae 2403; in combination with NXL-104) [µg/mL] | MIC (C. freundii 580; [3]) [µg/mL] | MIC (C. freundii 580; in combination with NXL-104) [µg/mL] | MIC (C. freundii 2003; [3]) [µg/mL] | MIC (C. freundii 2003; in combination with NXL-104) [µg/mL] | MIC (C. freundii 2487; [3]) [µg/mL] | MIC (C. freundii 2487; in combination with NXL-104) [µg/mL] | MIC (K. pneumoniae 4106; [4]) [µg/mL] | MIC (K. pneumoniae 4106; [5]) [µg/mL] | MIC (K. pneumoniae 4106; [6]) [µg/mL] | MIC (K. pneumoniae 4106; [7]) [µg/mL] | MIC (K. pneumoniae 4109; [8]) [µg/mL] | MIC (K. pneumoniae 4109; in combination with NXL-104) [µg/mL] | also measured
1 | CC(C)(O/N=C(\C(=O)N[C@@H]1C(=O)N2C(C(=O)[O-])=C(C[n+]3ccc4n3CCN4Cc3ccc(C(=N)N)cc3)CS[C@H]12)c1csc(N)n1)C(=O)O [Example 2, (6R,7R)-7-{[(2Z)-2-(2-Amino-1,3-thiazol-4-yl)-2-{[(2-carboxypropan-2-yl)oxy]imino}acetyl]amino}-3-{[1-(4-carbamimidoylbenzyl)-2,3-dihydro-1H-imidazo[1,2-b]pyrazol-5-ium-5-yl]methyl}-8-oxo-5-thia-1-azabicyclo[4.2.0]oct-2-ene-2-carboxylate] | 32 | 32.00 | 8 | 8.00 | 8 | 8.00 | ≤ 0.06 | ≤0.06 | 4 | 0.50 | 2 | 0.50 | 8 | 1.00 | 8 (≈ 11.3 µM) | > 32 | 2.00 | 4 | 0.5 | 0.12 | MIC (K. baumanii 2579; alone, read-out: MIC): > 32 µg/mL; MIC (K. baumanii 2579; in combination with NXL-104): 32.00 µg/mL; MIC (K. baumanii 4095; alone, read-out: MIC): 0.25 µg/mL; MIC (K. baumanii 4095; in combination with NXL-104): 0.25 µg/mL; MIC (E. coli 2668; [9]): 0.5 µg/mL; MIC (E. coli 2668; in combination with NXL-104): 0.25 µg/mL; MIC (E. cloacae 2705; [10]): > 32 µg/mL; MIC (E. cloacae 2705; in combination with NXL-104): >32 µg/mL; MIC (K. pneumoniae 2690; [8]): 32 µg/mL (≈ 45.1 µM); MIC (K. pneumoniae 2690; in combination with NXL-104): 2 µg/mL; MIC (K. pneumoniae 2711; [8]): 4 µg/mL (≈ 5.64 µM); MIC (K. pneumoniae 2711; in combination with NXL-104): 0.5 µg/mL
2 | CC(C)(O/N=C(\C(=O)N[C@@H]1C(=O)N2C(C(=O)[O-])=C(C[n+]3ccc4c(ccn4Cc4cc(C(=N)N)cs4)c3)CS[C@H]12)c1csc(N)n1)C(=O)O [Example 5, (6R,7R)-7-{[(2Z)-2-(2-Amino-1,3-thiazol-4-yl)-2-{[(2-carboxypropan-2-yl)oxy]imino}acetyl]amino}-3-({1-[(4-carbamimidoylthiophen-2-yl)methyl]-1H-pyrrolo[3,2-c]pyridin-5-ium-5-yl}methyl)-8-oxo-5-thia-1-azabicyclo[4.2.0]oct-2-ene-2-carboxylate] | 32 | 4.00 | 2 | 2.00 | 2 | 2.00 | ≤ 0.06 | ≤0.06 | 8 | 0.25 | 8 | 0.25 | 32 | 1.00 | 16 (≈ 22.1 µM) | 32 (≈ 44.2 µM) | 1.00 | 2 | 8 | 0.12 | MIC (K. baumanii 2579; alone, read-out: MIC): > 32 µg/mL; MIC (K. baumanii 2579; in combination with NXL-104): 8.00 µg/mL; MIC (K. baumanii 4095; alone, read-out: MIC): 0.25 µg/mL; MIC (K. baumanii 4095; in combination with NXL-104): 0.25 µg/mL; MIC (E. coli 2668; [9]): 1 µg/mL; MIC (E. coli 2668; in combination with NXL-104): ≤0.06 µg/mL; MIC (E. cloacae 2705; [10]): > 32 µg/mL; MIC (E. cloacae 2705; in combination with NXL-104): >32 µg/mL; MIC (K. pneumoniae 2690; [8]): 8 µg/mL (≈ 11.1 µM); MIC (K. pneumoniae 2690; in combination with NXL-104): .5 µg/mL; MIC (K. pneumoniae 2711; [8]): 2 µg/mL (≈ 2.76 µM); MIC (K. pneumoniae 2711; in combination with NXL-104): 0.25 µg/mL
